Results: ChEMBL document CHEMBL3994625, “Crystal structures, binding interactions, and ADME evaluation of brain penetrant N-substituted indazole-5-carboxamides as subnanomolar, selective monoamine oxidase B and dual MAO-A/B inhibitors” (Eur J Med Chem, 2017)
Values after ≈ are worked out from the molar mass of the structure shown.

Biological target: T1, Amine oxidase [flavin-containing] B (Rattus norvegicus, UniProt P19643)
T1 sequence (P19643 whole entry): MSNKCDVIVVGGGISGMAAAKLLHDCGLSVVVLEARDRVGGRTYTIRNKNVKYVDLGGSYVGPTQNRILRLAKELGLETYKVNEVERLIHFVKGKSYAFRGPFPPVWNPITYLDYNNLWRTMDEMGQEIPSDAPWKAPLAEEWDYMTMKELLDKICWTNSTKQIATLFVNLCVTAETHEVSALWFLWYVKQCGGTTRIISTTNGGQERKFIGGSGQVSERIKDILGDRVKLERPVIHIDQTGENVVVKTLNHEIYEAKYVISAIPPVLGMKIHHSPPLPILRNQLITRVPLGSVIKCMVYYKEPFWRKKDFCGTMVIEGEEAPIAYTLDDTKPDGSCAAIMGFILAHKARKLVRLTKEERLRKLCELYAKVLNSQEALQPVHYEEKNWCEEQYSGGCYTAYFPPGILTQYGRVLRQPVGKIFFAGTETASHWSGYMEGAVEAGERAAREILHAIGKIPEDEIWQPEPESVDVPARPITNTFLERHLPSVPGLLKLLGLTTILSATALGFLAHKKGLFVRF
Assay: Inhibition of MAOB in Sprague-Dawley rat liver mitochondria using p-tyramine as substrate measured for 45 mins in presence of MAOA inhibitor clorgyline by continuous fluorescence-based method
Conditions: not given

Compound	IC50 [nM]
COCCn1ncc2cc(C(=O)Nc3ccc(Cl)c(Cl)c3)ccc21	3.82

System: not given
Assay: not given
Conditions: buffer, pH 7.4, […], 500 µM

Compound	log(Kinetic_solubility)
Cn1cc2cc(C(=O)Nc3ccc(Cl)c(Cl)c3)ccc2n1	-4.25
O=C(Nc1ccc(F)c(F)c1)c1ccc2[nH]ncc2c1	-4.22
Cn1ncc2cc(C(=O)Nc3ccc(Cl)c(Cl)c3)ccc21	-5.45
Cn1cc2cc(C(=O)Nc3ccc(F)c(Cl)c3)ccc2n1	-3.36

Biological target: T2, Amine oxidase [flavin-containing] A (Rattus norvegicus, UniProt P21396)
T2 sequence (P21396 whole entry): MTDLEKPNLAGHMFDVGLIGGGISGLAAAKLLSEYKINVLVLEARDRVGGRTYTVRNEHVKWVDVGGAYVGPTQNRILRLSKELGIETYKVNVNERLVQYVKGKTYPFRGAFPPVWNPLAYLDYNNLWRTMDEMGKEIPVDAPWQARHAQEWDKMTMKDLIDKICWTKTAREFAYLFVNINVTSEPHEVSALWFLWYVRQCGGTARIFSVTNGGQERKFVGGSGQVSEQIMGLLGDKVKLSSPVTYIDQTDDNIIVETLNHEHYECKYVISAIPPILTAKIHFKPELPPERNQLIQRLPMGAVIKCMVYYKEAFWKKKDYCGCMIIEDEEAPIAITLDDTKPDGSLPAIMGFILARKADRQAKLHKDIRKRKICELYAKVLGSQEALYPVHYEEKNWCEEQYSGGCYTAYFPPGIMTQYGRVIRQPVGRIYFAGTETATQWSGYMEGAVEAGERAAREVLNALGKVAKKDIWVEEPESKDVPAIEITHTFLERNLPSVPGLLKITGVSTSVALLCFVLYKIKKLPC
Assay: not given
Conditions: not given

Compound	IC50 [nM]
COCCn1ncc2cc(C(=O)Nc3ccc(Cl)c(Cl)c3)ccc21	> 10000

System: not listed separately
Assay: Effective permeability of the compound at pH 7.4 at 200 uM after 4 hrs by PAMPA-GI assay
Format: physicochemical
Conditions: read-out: Peff

Compound	Papp at 4 h, 200 µM [×10⁻⁶ cm/s]
Cn1cc2cc(C(=O)Nc3ccc(Cl)c(Cl)c3)ccc2n1	17.6
O=C(Nc1ccc(F)c(F)c1)c1ccc2[nH]ncc2c1	≤ 0.59
Cn1ncc2cc(C(=O)Nc3ccc(Cl)c(Cl)c3)ccc21	18.6
Cn1cc2cc(C(=O)Nc3ccc(F)c(Cl)c3)ccc2n1	9.35

System: not listed separately
Assay: n-octanol-phosphate buffer distribution coefficient, log D of the compound at pH 7.4 after 90 mins by shake-flask method
Format: physicochemical
Conditions: not given

Compound	logD at […]
Cn1cc2cc(C(=O)Nc3ccc(Cl)c(Cl)c3)ccc2n1	2.97
Cn1cc2cc(C(=O)Nc3ccc(F)c(Cl)c3)ccc2n1	2.64

System: not listed separately
Assay: physchem
Conditions: phosphate buffer, pH 5.5

Compound	solubility kinetic at […], 500 µM [µM]
Cn1cc2cc(C(=O)Nc3ccc(Cl)c(Cl)c3)ccc2n1	50 (≈ 16 µg/mL)
O=C(Nc1ccc(F)c(F)c1)c1ccc2[nH]ncc2c1	62.7 (≈ 17.1 µg/mL)
Cn1ncc2cc(C(=O)Nc3ccc(Cl)c(Cl)c3)ccc21	3.04 (≈ 0.973 µg/mL)
Cn1cc2cc(C(=O)Nc3ccc(F)c(Cl)c3)ccc2n1	421 (≈ 128 µg/mL)

Species: Homo sapiens
Assay: Selectivity index, ratio of IC50 for recombinant human MAOA to IC50 for recombinant human MAOB
Conditions: not given

Compound	Ratio IC50
O=C(Nc1ccc(F)c(F)c1)c1ccc2[nH]ncc2c1	6290
Cn1cc2cc(C(=O)Nc3ccc(F)c(Cl)c3)ccc2n1	70
COCCn1ncc2cc(C(=O)Nc3ccc(Cl)c(Cl)c3)ccc21	> 2660

System: not listed separately
Assay: Effective permeability of the compound at pH 7.4 at 200 uM after 4 hrs by PAMPA-BBB assay
Format: physicochemical
Conditions: read-out: Peff

Compound	Papp at 4 h, 200 µM [×10⁻⁶ cm/s]
Cn1cc2cc(C(=O)Nc3ccc(Cl)c(Cl)c3)ccc2n1	29
O=C(Nc1ccc(F)c(F)c1)c1ccc2[nH]ncc2c1	8.15
Cn1ncc2cc(C(=O)Nc3ccc(Cl)c(Cl)c3)ccc21	22.3
Cn1cc2cc(C(=O)Nc3ccc(F)c(Cl)c3)ccc2n1	17.2

System: not given
Assay: not given
Conditions: buffer, pH 2, […], 500 µM

Compound	log(Kinetic_solubility)
Cn1cc2cc(C(=O)Nc3ccc(Cl)c(Cl)c3)ccc2n1	-4.24
O=C(Nc1ccc(F)c(F)c1)c1ccc2[nH]ncc2c1	-4.21
Cn1ncc2cc(C(=O)Nc3ccc(Cl)c(Cl)c3)ccc21	-5.39
Cn1cc2cc(C(=O)Nc3ccc(F)c(Cl)c3)ccc2n1	-3.36

System: not listed separately
Assay: Effective permeability of the compound at pH 5.5 at 200 uM after 4 hrs by PAMPA-GI assay
Format: physicochemical
Conditions: read-out: Peff

Compound	Papp at 4 h, 200 µM [×10⁻⁶ cm/s]
Cn1cc2cc(C(=O)Nc3ccc(Cl)c(Cl)c3)ccc2n1	16.1
O=C(Nc1ccc(F)c(F)c1)c1ccc2[nH]ncc2c1	≤ 0.59
Cn1ncc2cc(C(=O)Nc3ccc(Cl)c(Cl)c3)ccc21	16.8
Cn1cc2cc(C(=O)Nc3ccc(F)c(Cl)c3)ccc2n1	9.11

System: not listed separately
Assay: n-octanol-phosphate buffer distribution coefficient, log D of the compound at pH 2 after 90 mins by shake-flask method
Format: physicochemical
Conditions: not given

Compound	logD at […]
Cn1cc2cc(C(=O)Nc3ccc(Cl)c(Cl)c3)ccc2n1	2.49
O=C(Nc1ccc(F)c(F)c1)c1ccc2[nH]ncc2c1	2.17
Cn1cc2cc(C(=O)Nc3ccc(F)c(Cl)c3)ccc2n1	3.24

Biological target: T3, Amine oxidase [flavin-containing] A (Homo sapiens, UniProt P21397)
T3 sequence (P21397 whole entry): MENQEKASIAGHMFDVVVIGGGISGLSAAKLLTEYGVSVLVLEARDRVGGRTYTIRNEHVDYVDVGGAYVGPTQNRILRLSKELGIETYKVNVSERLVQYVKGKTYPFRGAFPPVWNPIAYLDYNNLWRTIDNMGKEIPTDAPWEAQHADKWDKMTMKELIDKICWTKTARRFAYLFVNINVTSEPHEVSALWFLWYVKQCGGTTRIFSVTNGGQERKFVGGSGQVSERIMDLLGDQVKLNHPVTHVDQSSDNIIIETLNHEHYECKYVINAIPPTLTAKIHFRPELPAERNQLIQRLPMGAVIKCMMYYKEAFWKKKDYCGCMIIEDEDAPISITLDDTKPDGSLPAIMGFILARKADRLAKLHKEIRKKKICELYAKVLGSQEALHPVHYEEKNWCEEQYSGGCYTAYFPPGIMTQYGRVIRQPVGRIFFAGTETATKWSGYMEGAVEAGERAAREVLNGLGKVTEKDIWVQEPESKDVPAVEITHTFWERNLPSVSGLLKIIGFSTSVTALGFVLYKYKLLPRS
Assay: biochemical
Conditions: not given

Compound	IC50 [nM]
O=C(Nc1ccc(F)c(F)c1)c1ccc2[nH]ncc2c1	6.61
Cn1cc2cc(C(=O)Nc3ccc(F)c(Cl)c3)ccc2n1	8.13
COCCn1ncc2cc(C(=O)Nc3ccc(Cl)c(Cl)c3)ccc21	2870

System: not listed separately
Assay: Effective permeability of the compound at pH 2 at 200 uM after 4 hrs by PAMPA-GI assay
Format: physicochemical
Conditions: read-out: Peff

Compound	Papp at 4 h, 200 µM [×10⁻⁶ cm/s]
Cn1cc2cc(C(=O)Nc3ccc(Cl)c(Cl)c3)ccc2n1	14.5
O=C(Nc1ccc(F)c(F)c1)c1ccc2[nH]ncc2c1	≤ 0.59
Cn1ncc2cc(C(=O)Nc3ccc(Cl)c(Cl)c3)ccc21	18.3
Cn1cc2cc(C(=O)Nc3ccc(F)c(Cl)c3)ccc2n1	8.16

System: not listed separately
Assay: n-octanol-phosphate buffer distribution coefficient, log D of the compound at pH 5.5 after 90 mins by shake-flask method
Format: physicochemical
Conditions: not given

Compound	logD at […]
Cn1cc2cc(C(=O)Nc3ccc(Cl)c(Cl)c3)ccc2n1	2.54
O=C(Nc1ccc(F)c(F)c1)c1ccc2[nH]ncc2c1	1.94
Cn1cc2cc(C(=O)Nc3ccc(F)c(Cl)c3)ccc2n1	2.55

System: not given
Assay: not given
Conditions: buffer, pH 5.5, […], 500 µM

Compound	log(Kinetic_solubility)
Cn1cc2cc(C(=O)Nc3ccc(Cl)c(Cl)c3)ccc2n1	-4.3
O=C(Nc1ccc(F)c(F)c1)c1ccc2[nH]ncc2c1	-4.2
Cn1ncc2cc(C(=O)Nc3ccc(Cl)c(Cl)c3)ccc21	-5.52
Cn1cc2cc(C(=O)Nc3ccc(F)c(Cl)c3)ccc2n1	-3.38

System: not listed separately
Assay: physchem
Conditions: phosphate buffer, pH 7.4

Compound	solubility kinetic at […], 500 µM [µM]
Cn1cc2cc(C(=O)Nc3ccc(Cl)c(Cl)c3)ccc2n1	55.9 (≈ 17.9 µg/mL)
O=C(Nc1ccc(F)c(F)c1)c1ccc2[nH]ncc2c1	60.7 (≈ 16.6 µg/mL)
Cn1ncc2cc(C(=O)Nc3ccc(Cl)c(Cl)c3)ccc21	3.51 (≈ 1.12 µg/mL)
Cn1cc2cc(C(=O)Nc3ccc(F)c(Cl)c3)ccc2n1	441 (≈ 134 µg/mL)

Biological target: T4, Amine oxidase [flavin-containing] B (Homo sapiens, UniProt P27338)
T4 sequence (P27338 whole entry): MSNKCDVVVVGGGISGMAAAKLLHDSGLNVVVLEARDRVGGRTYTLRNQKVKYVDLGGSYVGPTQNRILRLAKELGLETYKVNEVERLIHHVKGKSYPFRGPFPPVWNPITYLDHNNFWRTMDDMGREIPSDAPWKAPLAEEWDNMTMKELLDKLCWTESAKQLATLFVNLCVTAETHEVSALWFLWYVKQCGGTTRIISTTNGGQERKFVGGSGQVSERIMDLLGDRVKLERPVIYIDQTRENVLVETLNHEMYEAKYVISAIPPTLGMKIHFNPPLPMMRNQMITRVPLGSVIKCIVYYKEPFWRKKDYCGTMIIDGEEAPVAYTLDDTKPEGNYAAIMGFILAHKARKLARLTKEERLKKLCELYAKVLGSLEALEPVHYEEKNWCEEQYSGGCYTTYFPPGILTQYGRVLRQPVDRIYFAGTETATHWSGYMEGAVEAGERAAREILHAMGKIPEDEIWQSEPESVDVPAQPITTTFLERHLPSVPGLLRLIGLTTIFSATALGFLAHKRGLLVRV
Assay: biochemical
Conditions: not given

Compound	Ki [nM]	IC50 [nM]
Cn1cc2cc(C(=O)Nc3ccc(Cl)c(Cl)c3)ccc2n1	0.64	
Cn1cc2cc(C(=O)Nc3ccc(F)c(Cl)c3)ccc2n1	3.57	
COCCn1ncc2cc(C(=O)Nc3ccc(Cl)c(Cl)c3)ccc21	0.48	1.08

System: not listed separately
Assay: physchem
Conditions: phosphate buffer, pH 2

Compound	solubility kinetic at […], 500 µM [µM]
Cn1cc2cc(C(=O)Nc3ccc(Cl)c(Cl)c3)ccc2n1	57.5 (≈ 18.4 µg/mL)
O=C(Nc1ccc(F)c(F)c1)c1ccc2[nH]ncc2c1	61.1 (≈ 16.7 µg/mL)
Cn1ncc2cc(C(=O)Nc3ccc(Cl)c(Cl)c3)ccc21	4.07 (≈ 1.3 µg/mL)
Cn1cc2cc(C(=O)Nc3ccc(F)c(Cl)c3)ccc2n1	439 (≈ 133 µg/mL)
